Data published in the supplement of paper PMC10307832.

Key:
Experiment in all cases: relative viability (nuclei count vs DMSO), 5 days (fraction); higher = more cells survive
[1] = compound: C1COCCN1CC2=CC(=O)C(=CO2)OCCCCCSC3=C4C=CC(=CC4=NC=C3)C(F)(F)F [EHT 1864] + Cc1nc(NC(=O)N2CCC[C@H]2C(N)=O)sc1-c1ccnc(C(C)(C)C(F)(F)F)c1 [Alpelisib] (partner 2 µM)
Summary of the method: (§1)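 Relative viability is defined as nuclei in treated wells over nuclei in vehicle wells. Duplicate plates were run and medians reported. Lung cancer cell lines in 1536-well plates were dosed by pin tool one day after seeding, with one drug or with a fixed anchor-drug dose plus five library-drug doses (not always all listed) in √10 steps, and nuclei were counted after 5 days.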

[2] = compound: C1COCCN1CC2=CC(=O)C(=CO2)OCCCCCSC3=C4C=CC(=CC4=NC=C3)C(F)(F)F [EHT 1864] + Nc1ncn([C@H]2C[C@H](O)[C@@H](CO)O2)c(=O)n1 [Decitabine] (partner 2 µM)
Summary of the method: as §1

[3] = compound: C1COCCN1CC2=CC(=O)C(=CO2)OCCCCCSC3=C4C=CC(=CC4=NC=C3)C(F)(F)F [EHT 1864] + C[C@]1(O)C[C@@H](c2nc(-c3ccc4ccc(-c5ccccc5)nc4c3)c3c(N)nccn32)C1 [Linsitinib] (partner 1 µM)
Summary of the method: as §1

[4] = compound: C1COCCN1CC2=CC(=O)C(=CO2)OCCCCCSC3=C4C=CC(=CC4=NC=C3)C(F)(F)F [EHT 1864] + CS(=O)(=O)N1CCN(Cc2cc3nc(-c4cccc5[nH]ncc45)nc(N4CCOCC4)c3s2)CC1 [Pictilisib] (partner 1 µM)
Summary of the method: as §1

Cell Line	relative viability ([1]; first compound 0.04 µM)	relative viability ([1]; first compound 0.1265 µM)	relative viability ([1]; first compound 0.4 µM)	relative viability ([1]; first compound 1.265 µM)	relative viability ([1]; first compound 4 µM)	relative viability ([2]; first compound 0.04 µM)	relative viability ([2]; first compound 0.1265 µM)	relative viability ([2]; first compound 0.4 µM)	relative viability ([2]; first compound 1.265 µM)	relative viability ([2]; first compound 4 µM)	relative viability ([3]; first compound 0.04 µM)	relative viability ([3]; first compound 0.1265 µM)	relative viability ([3]; first compound 0.4 µM)	relative viability ([3]; first compound 1.265 µM)	relative viability ([3]; first compound 4 µM)	relative viability ([4]; first compound 0.04 µM)	relative viability ([4]; first compound 0.1265 µM)	relative viability ([4]; first compound 0.4 µM)	relative viability ([4]; first compound 1.265 µM)	relative viability ([4]; first compound 4 µM)
HCC-78	0.29	0.31	0.328	0.367	0.491	0.735	0.726	0.577	0.713	0.789	0.555	0.452	0.394	0.486	0.809	0.262	0.209	0.242	0.205	0.25
NCI-H2085	0.998	0.875	0.9	0.982	0.869	0.604	0.551	0.588	0.656	0.555	0.87	0.816	0.883	0.91	0.787	0.555	0.524	0.47	0.448	0.428
PC-14	0.916	0.888	0.952	0.901	0.846	0.213	0.201	0.265	0.244	0.162	0.955	0.973	0.954	0.985	0.99	0.664	0.59	0.686	0.637	0.582
NCI-H2342	–	–	–	–	–	0.712	0.562	0.787	0.751	0.763	–	–	–	–	–	–	–	–	–	–
A-427	1.15	1.08	1.04	1.11	1.13	0.566	0.572	0.548	0.564	0.59	1.09	1.18	1.15	1.11	1.13	0.695	0.749	0.688	0.658	0.607
H3255	0.652	0.516	0.675	0.718	0.711	0.585	0.548	–	0.573	0.677	0.934	0.848	1.04	1	0.898	0.405	0.421	0.512	0.479	0.518
HCC-44	0.801	0.703	0.751	0.695	0.857	0.951	0.797	0.914	0.981	0.987	0.692	0.58	0.598	0.642	0.621	0.412	0.37	0.604	0.573	0.694
NCI-H1734	0.741	0.629	0.627	0.609	0.64	0.495	0.552	0.478	0.511	0.514	0.867	0.902	0.863	0.919	0.77	0.485	0.455	0.455	0.452	0.418
NCI-H2228	0.776	0.813	0.732	0.594	0.713	–	–	–	–	–	0.655	0.635	0.802	0.661	0.478	0.414	0.357	0.267	0.417	0.443
ABC-1	0.665	1	1.05	0.92	1.07	1.35	0.91	1.15	0.881	0.901	0.769	0.797	0.73	0.718	0.555	0.935	0.713	0.814	0.824	0.73
COR-L23	0.832	0.878	0.815	0.855	0.76	0.523	0.343	0.473	0.475	0.307	0.94	0.921	0.942	0.949	0.873	0.716	0.523	0.78	0.692	0.822
NCI-H661	0.596	0.672	0.527	0.465	0.531	0.609	0.527	0.581	0.576	0.514	0.603	0.516	0.535	0.512	0.449	0.403	0.435	0.481	0.437	0.415
ChaGo-K-1	–	–	–	–	–	0.584	0.501	0.527	0.477	0.531	–	–	–	–	–	0.816	0.664	0.736	–	0.806
NCI-H1650	–	–	–	–	–	0.411	0.385	0.435	0.47	0.5	–	–	–	–	–	0.597	0.351	0.579	0.548	0.442
EBC-1	0.843	0.697	0.886	0.908	0.881	–	–	–	–	–	0.883	0.426	0.914	0.896	0.99	0.425	0.342	0.385	0.41	0.426
NCI-H1703	0.323	0.319	0.399	0.373	0.366	–	–	–	–	–	0.725	–	0.931	0.789	0.647	0.222	0.245	0.26	0.251	0.266
CAL-12T	1.23	1.14	1.08	1.25	1.05	–	–	–	–	–	0.824	0.667	0.79	0.824	0.838	0.596	0.542	0.446	0.457	0.574
NCI-H2170	0.751	0.759	0.771	0.793	0.793	0.488	0.451	0.488	0.473	0.467	–	–	–	–	–	0.371	0.272	0.374	0.309	0.275
NCI-H1563	0.853	1.03	1.04	0.96	0.805	–	–	–	–	–	1.17	1.3	1.24	1.17	0.94	0.62	0.637	0.638	0.656	0.669
